# From the supplement of paper PMC10307832
# Legend:
# Experiment in all cases: relative viability (nuclei count vs DMSO), 5 days (fraction); higher = more cells survive
# NCI-H2023 = system: NCI-H2023
# How it was run: (§1)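 Values are medians from duplicate plates. Each reflects relative viability, defined as the nuclei count of treated wells over that of vehicle wells. Lung cancer cell lines in 1536-well plates were pin-tool dosed one day after seeding with one drug alone or with a fixed anchor-drug dose plus five library-drug doses (not always all listed) in √10 steps, then fixed, stained and imaged at 4× after 5 days.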
# NCI-H1734 = system: NCI-H1734
# How it was run: as §1
# UMC-11 = system: UMC-11
# How it was run: as §1
# H3255 = system: H3255
# How it was run: as §1
# NCI-H1563 = system: NCI-H1563
# How it was run: as §1
# SW 900 = system: SW 900
# How it was run: as §1
# NCI-H2347 = system: NCI-H2347
# How it was run: as §1
# NCI-H520 = system: NCI-H520
# How it was run: as §1
# NCI-H2405 = system: NCI-H2405
# How it was run: as §1
# PC-14 = system: PC-14
# How it was run: as §1
# 201T = system: 201T
# How it was run: as §1
# NCI-H1793 = system: NCI-H1793
# How it was run: as §1
# NCI-H2170 = system: NCI-H2170
# How it was run: as §1
# NCI-H441 = system: NCI-H441
# How it was run: as §1
# NCI-H1650 = system: NCI-H1650
# How it was run: as §1
# NCI-H322M = system: NCI-H322M
# How it was run: as §1
# HCC-15 = system: HCC-15
# How it was run: as §1
# EPLC-272H = system: EPLC-272H
# How it was run: as §1
# NCI-H647 = system: NCI-H647
# How it was run: as §1
# COR-L23 = system: COR-L23
# How it was run: as §1
# LOU-NH91 = system: LOU-NH91
# How it was run: as §1
# NCI-H3122 = system: NCI-H3122
# How it was run: as §1
structure (smiles),measurement,setting,value
O=c1cc(N2CCOCC2)oc2c(-c3cccc4c3sc3ccccc34)cccc12 + Nc1nc2[nH]cc(CCc3ccc(C(=O)N[C@@H](CCC(=O)O)C(=O)O)cc3)c2c(=O)[nH]1 [Pemetrexed] (partner 0.2 µM),relative viability,NCI-H2023; first compound 0.01 µM,0.284
same,relative viability,NCI-H2023; first compound 0.03162 µM,0.276
same,relative viability,NCI-H2023; first compound 0.1 µM,0.227
same,relative viability,NCI-H2023; first compound 0.3162 µM,0.249
same,relative viability,NCI-H2023; first compound 1 µM,0.161
same,relative viability,NCI-H1734; first compound 0.01 µM,0.453
same,relative viability,NCI-H1734; first compound 0.03162 µM,0.425
same,relative viability,NCI-H1734; first compound 0.1 µM,0.406
same,relative viability,NCI-H1734; first compound 0.3162 µM,0.412
same,relative viability,NCI-H1734; first compound 1 µM,0.396
same,relative viability,UMC-11; first compound 0.01 µM,0.738
same,relative viability,UMC-11; first compound 0.03162 µM,0.66
same,relative viability,UMC-11; first compound 0.1 µM,0.868
same,relative viability,UMC-11; first compound 0.3162 µM,0.805
same,relative viability,UMC-11; first compound 1 µM,0.789
same,relative viability,H3255; first compound 0.01 µM,0.552
same,relative viability,H3255; first compound 0.03162 µM,0.617
same,relative viability,H3255; first compound 0.1 µM,0.531
same,relative viability,H3255; first compound 0.3162 µM,0.585
same,relative viability,H3255; first compound 1 µM,0.553
same,relative viability,NCI-H1563; first compound 0.01 µM,0.863
same,relative viability,NCI-H1563; first compound 0.03162 µM,0.778
same,relative viability,NCI-H1563; first compound 0.1 µM,0.761
same,relative viability,NCI-H1563; first compound 0.3162 µM,0.767
same,relative viability,NCI-H1563; first compound 1 µM,0.641
same,relative viability,SW 900; first compound 0.03162 µM,0.452
same,relative viability,SW 900; first compound 0.1 µM,0.425
same,relative viability,SW 900; first compound 0.3162 µM,0.51
same,relative viability,SW 900; first compound 1 µM,0.507
same,relative viability,NCI-H2347; first compound 0.01 µM,0.458
same,relative viability,NCI-H2347; first compound 0.03162 µM,0.472
same,relative viability,NCI-H2347; first compound 0.1 µM,0.415
same,relative viability,NCI-H2347; first compound 0.3162 µM,0.433
same,relative viability,NCI-H2347; first compound 1 µM,0.44
same,relative viability,NCI-H520; first compound 0.01 µM,0.646
same,relative viability,NCI-H520; first compound 0.03162 µM,0.657
same,relative viability,NCI-H520; first compound 0.1 µM,0.772
same,relative viability,NCI-H520; first compound 0.3162 µM,0.623
same,relative viability,NCI-H520; first compound 1 µM,0.659
same,relative viability,NCI-H2405; first compound 0.01 µM,1.02
same,relative viability,NCI-H2405; first compound 0.03162 µM,1.18
same,relative viability,NCI-H2405; first compound 0.1 µM,0.943
same,relative viability,NCI-H2405; first compound 0.3162 µM,1.11
same,relative viability,NCI-H2405; first compound 1 µM,1.09
same,relative viability,PC-14; first compound 0.01 µM,0.133
same,relative viability,PC-14; first compound 0.03162 µM,0.153
same,relative viability,PC-14; first compound 0.1 µM,0.131
same,relative viability,PC-14; first compound 0.3162 µM,0.114
same,relative viability,PC-14; first compound 1 µM,0.132
same,relative viability,201T; first compound 0.01 µM,0.326
same,relative viability,201T; first compound 0.03162 µM,0.316
same,relative viability,201T; first compound 0.1 µM,0.338
same,relative viability,201T; first compound 0.3162 µM,0.397
same,relative viability,201T; first compound 1 µM,0.359
same,relative viability,NCI-H1793; first compound 0.01 µM,0.776
same,relative viability,NCI-H1793; first compound 0.03162 µM,0.728
same,relative viability,NCI-H1793; first compound 0.1 µM,1.01
same,relative viability,NCI-H1793; first compound 0.3162 µM,0.961
same,relative viability,NCI-H1793; first compound 1 µM,0.74
same,relative viability,NCI-H2170; first compound 0.01 µM,0.253
same,relative viability,NCI-H2170; first compound 0.03162 µM,0.251
same,relative viability,NCI-H2170; first compound 0.1 µM,0.263
same,relative viability,NCI-H2170; first compound 0.3162 µM,0.267
same,relative viability,NCI-H2170; first compound 1 µM,0.255
same,relative viability,NCI-H441; first compound 0.01 µM,0.256
same,relative viability,NCI-H441; first compound 0.03162 µM,0.272
same,relative viability,NCI-H441; first compound 0.1 µM,0.299
same,relative viability,NCI-H441; first compound 0.3162 µM,0.276
same,relative viability,NCI-H441; first compound 1 µM,0.235
same,relative viability,NCI-H1650; first compound 0.01 µM,0.397
same,relative viability,NCI-H1650; first compound 0.03162 µM,0.374
same,relative viability,NCI-H1650; first compound 0.1 µM,0.35
same,relative viability,NCI-H1650; first compound 0.3162 µM,0.341
same,relative viability,NCI-H1650; first compound 1 µM,0.34
same,relative viability,NCI-H322M; first compound 0.01 µM,0.611
same,relative viability,NCI-H322M; first compound 0.03162 µM,0.613
same,relative viability,NCI-H322M; first compound 0.3162 µM,0.617
same,relative viability,NCI-H322M; first compound 1 µM,0.61
same,relative viability,HCC-15; first compound 0.01 µM,0.214
same,relative viability,HCC-15; first compound 0.03162 µM,0.221
same,relative viability,HCC-15; first compound 0.1 µM,0.225
same,relative viability,HCC-15; first compound 0.3162 µM,0.205
same,relative viability,HCC-15; first compound 1 µM,0.195
same,relative viability,EPLC-272H; first compound 0.01 µM,0.344
same,relative viability,EPLC-272H; first compound 0.03162 µM,0.361
same,relative viability,EPLC-272H; first compound 0.1 µM,0.334
same,relative viability,EPLC-272H; first compound 0.3162 µM,0.368
same,relative viability,EPLC-272H; first compound 1 µM,0.442
same,relative viability,NCI-H647; first compound 0.01 µM,0.187
same,relative viability,NCI-H647; first compound 0.03162 µM,0.183
same,relative viability,NCI-H647; first compound 0.1 µM,0.184
same,relative viability,NCI-H647; first compound 0.3162 µM,0.209
same,relative viability,NCI-H647; first compound 1 µM,0.178
same,relative viability,COR-L23; first compound 0.01 µM,0.189
same,relative viability,COR-L23; first compound 0.03162 µM,0.204
same,relative viability,COR-L23; first compound 0.1 µM,0.203
same,relative viability,COR-L23; first compound 0.3162 µM,0.201
same,relative viability,COR-L23; first compound 1 µM,0.204
same,relative viability,LOU-NH91; first compound 0.01 µM,0.39
same,relative viability,LOU-NH91; first compound 0.03162 µM,0.384
same,relative viability,LOU-NH91; first compound 0.1 µM,0.377
same,relative viability,LOU-NH91; first compound 0.3162 µM,0.386
same,relative viability,LOU-NH91; first compound 1 µM,0.425
same,relative viability,NCI-H3122; first compound 0.01 µM,0.207
same,relative viability,NCI-H3122; first compound 0.03162 µM,0.206
same,relative viability,NCI-H3122; first compound 0.1 µM,0.197
same,relative viability,NCI-H3122; first compound 0.3162 µM,0.21
same,relative viability,NCI-H3122; first compound 1 µM,0.205
